In ChEMBL document CHEMBL1201862, “PubChem BioAssay data set” (2004):
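Values below derive from 48-hour exposures of cells grown in 96-well plates, with endpoints linearly interpolated between the two concentrations bracketing the appropriate inhibition level. The concentration for 50% growth inhibition is given as GI50.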 The source made the active and inactive calls. Cut-off read from the data, not from the text of the source: active = GI50 up to about 1.1 µM and inactive = higher.

Experiments:
Assay in all cases: DTP human tumour cell line panel, 48 h
[1] = system: U-251
[2] = system: A498
[3] = system: CAKI-1
[4] = system: OVCAR-5
[5] = system: SNB-19
[6] = system: M14
[7] = system: EKVX
[8] = system: MOLT-4
[9] = system: HCT-116
[10] = system: NCI-H522
[11] = system: SF-539
[12] = system: A549
[13] = system: NCI-H460
[14] = system: SK-OV-3
[15] = system: RPMI-8226
[16] = system: SK-MEL-28
[17] = system: Malme-3M

Measured: GI50

COC(=O)C1=C(C(=O)OC)SC(=C(/N=N/c2ccccc2)c2ccccc2)S1
inactive: [1] > 100 µM | [2] > 100 µM | [3] > 100 µM | [4] > 100 µM | [5] > 100 µM | [6] 45.8 µM | [7] > 100 µM | [8] > 100 µM | [9] > 100 µM | [10] 83.6 µM | [11] > 100 µM | [12] > 100 µM | [13] > 100 µM | [14] > 100 µM | [15] > 100 µM | [16] > 100 µM | [17] > 100 µM

O=P(c1ccccc1)(c1ccccc1)C1CC=C(c2ccccc2)C2(CCCC2)C1 (stereo unspecified)
inactive: [1] 94 µM | [2] 74.8 µM | [3] 40.6 µM | [4] 29.7 µM | [5] 48.6 µM | [6] 43.3 µM | [7] > 100 µM | [8] 21.4 µM | [9] 45 µM | [10] 8.79 µM | [11] > 100 µM | [12] 40.3 µM | [13] 59.2 µM | [14] > 100 µM | [15] 20.5 µM | [16] 40.1 µM | [17] 34.8 µM

c1c(N2CCOCC2)s[s+]c1N1CCOCC1
inactive: [1] > 100 µM | [2] > 100 µM | [3] > 100 µM | [4] > 100 µM | [5] > 100 µM | [6] > 100 µM | [7] > 100 µM | [8] > 100 µM | [9] > 100 µM | [10] > 100 µM | [11] > 100 µM | [12] > 100 µM | [13] > 100 µM | [14] > 100 µM | [15] > 100 µM | [16] > 100 µM | [17] > 100 µM

Cc1ccc(NC(=O)/C(CC(=O)c2c[n+]([O-])c3ccccc3[n+]2[O-])=N\NC(=O)C[n+]2ccccc2)cc1
inactive: [1] > 100 µM | [2] > 100 µM | [3] > 100 µM | [4] > 100 µM | [5] > 100 µM | [6] > 100 µM | [7] > 100 µM | [8] > 100 µM | [9] > 100 µM | [10] > 100 µM | [11] > 100 µM | [12] > 100 µM | [13] > 100 µM | [14] > 100 µM | [15] > 100 µM | [16] > 100 µM | [17] > 100 µM

CCOC(=O)/C(C#N)=C(N)/C(=N\Nc1cccc(C(F)(F)F)c1)C(=O)OCC
inactive: [1] > 100 µM | [2] > 100 µM | [3] > 100 µM | [4] > 100 µM | [5] > 100 µM | [6] > 100 µM | [7] > 100 µM | [8] > 100 µM | [9] > 100 µM | [10] > 100 µM | [11] > 100 µM | [12] > 100 µM | [14] > 100 µM | [15] > 100 µM | [16] > 100 µM | [17] > 100 µM

CCOC(=O)Nc1ccc(S(=O)(=O)OC)cc1.CCOC(=O)Nc1ccc(S(=O)(=O)OC)cc1.NC(=O)NCCO
inactive: [1] 23 µM | [2] > 50 µM | [3] 48.6 µM | [4] > 50 µM | [5] > 50 µM | [6] 42.4 µM | [7] > 50 µM | [8] > 50 µM | [9] 21.3 µM | [10] > 50 µM | [11] 21.2 µM | [12] > 50 µM | [13] 22.1 µM | [14] > 50 µM | [15] 17.1 µM | [16] > 50 µM | [17] > 50 µM
